Values quoted from earlier work, collected in patent US7678762B2, “Methods for reducing the risk of hypoglycemia” (DiObex, Inc., priority 2002, dated 2010).

Assays:
[1] = relative to normal glucagon
[2] = relative to normal glucagon; remark: listed apart in the source

Row | binding affinity [1] | Substance | relative potency [2]
1 | 4.7% | glucagon variant with a Phe at position 18: glucagon variant with a Phe at position 18 | 0.9%
2 | 500% | variant glucagon Lys 17 and 18, Glu 21: variant glucagon with a Lys substitution at positions 17 and 18 and a Glu substitution at position 21 (Sturm et al.) (HSQGTFTSDYSKYLDSKKAQEFVQWLMNT; Glucagon; UniProt P01275 53-81, looked up, variant R17K R18K D21E) | 700%
3 | 220% | variant glucagon amide Lys 17: variant glucagon amide with only a Lys substitution at position 17 | 230%
